Reference: patent US8895756B2, “Bendamustine pharmaceutical compositions” (priority 2005, dated 2014)

Assays:
[1] = Fisher esterification conditions: formation of t-butyl ester of bendamustine in TBA; assay type: physicochemical; conditions: heated in 60° C. TBA with HCl for 20 hours
Experimental: Experiments were performed using traditional Fisher esterification reaction conditions required for the formation of t-butyl ester of bendamustine. Bendamustine was heated in 60° C. TBA with HCl for 20 hours.

In the case of `Cl.Cn1c(CCCC(=O)O)nc2cc(N(CCCl)CCCl)ccc21` [bendamustine, 4-{5-[Bis(2-chloroethyl)amino]-1-methyl-2-benzimidazolyl}butyric acid], the saturation limit (20% (v/v) TBA, 5° C.) is reported as 17.2 mg/mL, the “concentration of saturated solution” value (30% TBA/water, 0° C.) is reported as 18000 µg/mL and the “formation of t-butyl ester” value [1] is reported as “No reaction was observed”.
